Where two headings read alike, the source gives them in different places.
Legend:
22RV1 cells = assay: Cell proliferation inhibition assay in 22RV1 cells (CellTiter-Glo, 7 days); format: cell-based, human; settings: Homo sapiens
Description: • 1. The human prostate cancer cell lines 22RV1 and LNCaP were purchased from ATCC. […] The cell concentration was adjusted to an appropriate concentration (determined based on the results of cell density optimization experiments), and the cells were seeded into a 96-well plate. A 100 µL cell suspension was added, resulting in 3000 cells per well. […] On the second day, for 22Rv1 cells, test compounds at different concentrations were added, and the cells were incubated at 37°C in a 5% CO2 incubator for 7 days; for LNCaP cells, test compounds at different concentrations were added first, and after 1 hour of treatment, 0.2 nM DHT was added. The cells were then incubated at 37°C in a 5% CO2 incubator for 7 days. • 4. After the incubation period, a volume of CellTiter-Glo detection reagent equal to the volume of the culture medium was added to each well. The plate was shaken and mixed thoroughly for 5 minutes, then incubated at room temperature for 10 minutes. Readings were taken using a PerkinElmer EnVision microplate reader. • 5.
The IC50 curve was fitted and the IC50 value was calculated using the software GraphPad Prism 8 with the calculation formula XY-analysis/Nonlinear regression (curve fit)/Dose response-Inhibition/log (inhibitor) vs. response-Variable slope (four parameters).

[1] = Mouse pharmacokinetic test; format: in vivo, ICR mice; settings: plasma; for Tmax: read-out: Tmax
Description: Formulation preparation: The dosing solutions were prepared on the day of administration.
Six healthy male naive ICR mice weighing 25-30 g were selected and divided into two groups (intravenous and oral groups), with three mice in each group, and administered a single dose. […] Feeding was resumed 4 h after administration. Timing was initiated following intravenous and oral administration. […] The collected whole blood was briefly vortexed twice for mixing, placed on wet ice, and centrifuged at 4°C and 8000 rpm for 5 min within 1 h. The supernatant plasma was collected and stored at -80°C until processing and analysis. Table 3: Pharmacokinetics in mice

| SMILES | IC50 (22RV1 cells; 22Rv1, 168 h) | AUC(0-inf) ([1]; po, 30 mg/kg, PO-30mpk) | Cmax ([1]; po, 30 mg/kg, PO-30mpk) | half-life ([1]; po, 30 mg/kg, PO-30mpk) | Tmax ([1]; po, 30 mg/kg, PO-30mpk) | IC50 (22RV1 cells; 168 h) | also measured |
| --- | --- | --- | --- | --- | --- | --- | --- |
| CC(C)(c1ccc(-c2ccc(OCc3ccnc(N4CC(S(C)(=N)=O)C4)n3)cn2)cc1)c1cc(Cl)c(OCCCl)c(C#N)c1 (racemic) [Compound 242] | 0.49 µM | 607 µg·h/mL | 78000 ng/mL | 4.4 h | 4 h | – | – |
| CC(C)(c1ccc(-c2ccc(OCc3ccnc(N=S4(=O)CCCC4)n3)cn2)cc1)c1cc(Cl)c(OCCCl)c(C#N)c1 [Compound 16] | 0.94 µM | 211 µg·h/mL | 36100 ng/mL | 1.46 h | 1.67 h | – | – |
| CC(C)(c1ccc(-c2ccc(OCc3ccnc(P(C)(C)=O)n3)nc2)cc1)c1cc(Cl)c(OCCCl)c(C#N)c1 [Compound 17] | 0.96 µM | 420 µg·h/mL | 35700 ng/mL | 5.82 h | 4.67 h | – | C0 ([1]; 0.5 mg/kg, IV-0.5mpk): 982 ng/mL; clearance ([1]; 0.5 mg/kg, IV-0.5mpk): 1.1 mL/min/kg; bioavailability ([1]; 30 mg/kg, PO-30mpk vs IV-0.5mpk): 92.2%; AUC(0-inf) ([1]; iv, 0.5 mg/kg, IV-0.5mpk): 7.59 µg·h/mL; half-life ([1]; iv, 0.5 mg/kg, IV-0.5mpk): 5.6 h |
| CC(C)(c1ccc(-c2ccc(Oc3ccnc(P(C)(C)=O)n3)cc2)cc1)c1cc(Cl)c(OCCCl)c(C#N)c1 [Compound 26] | 1.42 µM | 368 µg·h/mL | 29500 ng/mL | 7.81 h | 3.33 h | – | – |
| CC(C)(c1ccc(-c2ccc(OCc3ccnc(N=S(C)(C)=O)n3)cc2)cc1)c1cc(Cl)c(OCCCl)c(C#N)c1 [Compound 44] | 0.94 µM | 219 µg·h/mL | 11700 ng/mL | 9.35 h | 4.67 h | – | – |
| CC(C)(c1ccc(-c2ccc(OCC3CN(c4ccnc(P(C)(C)=O)n4)C3)cc2)cc1)c1cc(Cl)c(OCCCl)c(C#N)c1 [Compound 70] | 0.5 µM | 187 µg·h/mL | 14700 ng/mL | 5.13 h | 4 h | – | – |
| CC(C)(c1ccc(-c2ccc(OCc3ccnc(N4CC5(COC5)C4)n3)cn2)cc1)c1cc(Cl)c(OCCCl)c(C#N)c1 [Compound 82] | 0.86 µM | 171 µg·h/mL | 24900 ng/mL | 8.3 h | 2.7 h | – | – |
| CC(C)(c1ccc(-c2ccc(OC3CCN(c4ccnc(P(C)(C)=O)n4)CC3)nc2)cc1)c1cc(Cl)c(OCCCl)c(C#N)c1 [Compound 103] | 0.69 µM | 247 µg·h/mL | 18100 ng/mL | 7.5 h | 4 h | – | – |
| CC(C)(c1ccc(-c2ccc(OCc3ccnc(P(C)(C)=O)n3)c(F)c2)cc1)c1cc(Cl)c(OCCCl)c(C#N)c1 [Compound 117] | 0.68 µM | 304 µg·h/mL | 15700 ng/mL | 12.1 h | 4 h | – | – |
| CC(C)(c1ccc(-c2ccc(OCc3ccnc(N4CC(P(C)(C)=O)C4)n3)cc2)cc1)c1cc(Cl)c(OCCCl)c(C#N)c1 [Compound 135] | 0.23 µM | 207 µg·h/mL | 13600 ng/mL | 5.6 h | 6 h | – | – |
| CC(C)(c1ccc(-c2ccc(OCc3ccnc(C4CN(S(C)(=O)=O)C4)n3)cc2)cc1)c1cc(Cl)c(OCCCl)c(C#N)c1 [Compound 145] | 0.6 µM | 273 µg·h/mL | 15800 ng/mL | 15.3 h | 4 h | – | – |
| CC(C)(c1ccc(-c2ccc(OCc3ccnc(N4CC(NS(C)(=O)=O)C4)n3)cc2)cc1)c1cc(Cl)c(OCCCl)c(C#N)c1 [Compound 161] | 0.45 µM | 376 µg·h/mL | 11800 ng/mL | 22.7 h | 4 h | – | – |
| CC(C)(c1ccc(-c2ccc(OCc3ccnc(N4CC(CS(C)(=O)=O)C4)n3)cc2)cc1)c1cc(Cl)c(OCCCl)c(C#N)c1 [Compound 175] | 0.49 µM | 320 µg·h/mL | 9200 ng/mL | 21.1 h | 4 h | – | – |
| CC(C)(c1ccc(-c2ccc(OCc3ccnc(N4CC(S(N)(=O)=O)C4)n3)cn2)cc1)c1cc(Cl)c(OCCCl)c(C#N)c1 [Compound 180] | 0.8 µM | 309 µg·h/mL | 34600 ng/mL | 5.17 h | 3 h | – | – |
| CC(C)(c1ccc(-c2ccc(OCc3cccc(S(C)(=N)=O)n3)cc2)cc1)c1cc(Cl)c(OCCCl)c(C#N)c1 (stereo not drawn) [Compound 188] | 1.03 µM | 211 µg·h/mL | 17300 ng/mL | 7.5 h | 3 h | – | – |
| CCCOc1c(Cl)cc(C(C)(C)c2ccc(-c3ccc(OCc4ccnc(P(C)(C)=O)n4)cc3)cc2)cc1C#N [Compound 191] | – | – | – | – | – | 0.41 µM | AUC(0-inf) ([1]; 30 mg/kg, PO-30mpk): 481 µg·h/mL; Cmax ([1]; 30 mg/kg, PO-30mpk): 25000 ng/mL; half-life ([1]; 30 mg/kg, PO-30mpk): 13.2 h; Tmax ([1]; 30 mg/kg, PO-30mpk): 4 h |
| CC(C)(c1ccc(-c2ccc(OCc3ccnc(N4CC[C@H](S(C)(=O)=O)C4)n3)cc2)cc1)c1cc(Cl)c(OCCCl)c(C#N)c1 [Compound 202] | 0.66 µM | 202 µg·h/mL | 8880 ng/mL | 18.5 h | 4 h | – | – |
| CC(C)(c1ccc(-c2ccc(OCc3ncc(P(C)(C)=O)s3)cc2)cc1)c1cc(Cl)c(OCCCl)c(C#N)c1 [Compound 221] | 1.04 µM | 464 µg·h/mL | 19300 ng/mL | 10.4 h | 5 h | – | – |
| COc1c(Cl)cc(C(C)(C)c2ccc(-c3ccc(OCc4ccnc(P(C)(C)=O)n4)cc3)cc2)cc1C#N [Compound 237] | 0.86 µM | 213 µg·h/mL | 16200 ng/mL | 4.2 h | 3 h | – | – |

| SMILES | IC50 (22RV1 cells; 22Rv1, 168 h) | AUC(0-inf) ([1]; po, 30 mg/kg, PO-30mpk) | Cmax ([1]; po, 30 mg/kg, PO-30mpk) | half-life ([1]; po, 30 mg/kg, PO-30mpk) | Tmax ([1]; po, 30 mg/kg, PO-30mpk) | IC50 (22RV1 cells; 168 h) | also measured |
| --- | --- | --- | --- | --- | --- | --- | --- |
| CC(C)(c1ccc(-c2ccc(OCc3ccnc(N4CC5(CC(S(C)(=N)=O)C5)C4)n3)cc2)cc1)c1cc(Cl)c(OCCCl)c(C#N)c1 (stereo not drawn) [Compound 245] | 0.99 µM | 181 µg·h/mL | 11000 ng/mL | 7.3 h | 5 h | – | – |
| CC(C)(c1ccc(-c2ccc(OCC3CC(CN4CC5(CCS(=O)(=O)CC5)C4)C3)cc2)cc1)c1cc(Cl)c(OCCCl)c(C#N)c1 (stereo not drawn) [Compound 303] | – | – | – | – | – | 0.49 µM | – |
| Cc1cc(OCc2ccc(-c3cnc(P(C)(C)=O)nc3)cc2)ccc1-c1ccc(C(C)(C)c2cc(Cl)c(OCCCl)c(C#N)c2)cc1 [Compound 304] | – | – | – | – | – | 0.81 µM | – |
| CC(C)(c1ccc(-c2ccc(OCC3CC(CN4CC5(C4)CS(=N)(=O)C5)C3)cc2)cc1)c1cc(Cl)c(OCCCl)c(C#N)c1 (stereo not drawn) [Compound 307] | – | – | – | – | – | 0.66 µM | – |
| CC(C)(c1ccc(-c2ccc(OCC3CCC(CN4CC5(C4)CS(=O)(=O)C5)CC3)cc2)cc1)c1cc(Cl)c(OCCCl)c(C#N)c1 (stereo not drawn) [Compound 309] | – | – | – | – | – | 0.46 µM | – |
| CC(C)(c1ccc(-c2ccc(OCC3CN(C(=O)C4CC5(C4)CS(=O)(=O)C5)C3)cc2)cc1)c1cc(Cl)c(OCCCl)c(C#N)c1 [Compound 310] | – | – | – | – | – | 0.94 µM | – |
| CC(C)(c1ccc(-c2ccc(OCC3CC(CN4CC5(CCS(=N)(=O)CC5)C4)C3)cc2)cc1)c1cc(Cl)c(OCCCl)c(C#N)c1 (stereo not drawn) [Compound 311] | – | – | – | – | – | 0.54 µM | – |
| C[C@@H](Cl)COc1c(Cl)cc(C(C)(C)c2ccc(-c3ccc(OCc4ccnc(P(C)(C)=O)n4)cc3)cc2)cc1C#N [Compound 313] | – | – | – | – | – | 0.89 µM | – |
| CNC1CN(c2nccc(COc3ccc(-c4ccc(C(C)(C)c5cc(Cl)c(OCCCl)c(C#N)c5)cc4)cc3)n2)C1 [Compound 314] | – | – | – | – | – | 1.14 µM | – |
| C[C@H](O)CN1CCS(=O)(=Nc2nccc(COc3ccc(-c4ccc(C(C)(C)c5cc(Cl)c(OCCCl)c(C#N)c5)cc4)cc3)n2)CC1 [Compound 316] | – | – | – | – | – | 0.68 µM | – |
| CC(C)(c1ccc(-c2ccc(OCC3CCC(CN4CC5(C4)CS(=N)(=O)C5)CC3)cc2)cc1)c1cc(Cl)c(OCCCl)c(C#N)c1 (stereo not drawn) [Compound 318] | – | – | – | – | – | 0.73 µM | – |
| CC(C)(c1ccc(-c2ccc(OCC34CC(c5cnc(N6CC(S(C)(=O)=O)C6)nc5)(C3)C4)cc2)cc1)c1cc(Cl)c(OCCCl)c(C#N)c1 [Compound 321] | – | – | – | – | – | 1.2 µM | – |
| CC(C)(c1ccc(-c2ccc(OCCN3CCS(=N)(=O)CC3)cc2)cc1)c1cc(Cl)c(OCCCl)c(C#N)c1 [Compound 324] | – | – | – | – | – | 0.3 µM | – |
| CC(C)(c1ccc(-c2ccc(Oc3ccnc(P(C)(C)=O)n3)nc2)cc1)c1cc(Cl)c(OCCCl)c(C#N)c1 [Compound 326] | – | – | – | – | – | 0.98 µM | – |
| CC(C)(c1ccc(-c2ccc(OCC3CC4(C3)CS(=N)(=O)C4)cn2)cc1)c1cc(Cl)c(OCCCl)c(C#N)c1 (stereo not drawn) [Compound 328] | – | – | – | – | – | 1.11 µM | – |
| CC(C)(c1ccc(-c2ccc(OCc3ccnc(N4CC5(CCS5(=N)=O)C4)n3)cc2)cc1)c1cc(Cl)c(OCCCl)c(C#N)c1 (stereo not drawn) [Compound 329] | – | – | – | – | – | 0.39 µM | – |
| CC(C)(c1ccc(-c2ccc(OCCOc3nccc(P(C)(C)=O)n3)cc2)cc1)c1cc(Cl)c(OCCCl)c(C#N)c1 [Compound 330] | – | – | – | – | – | 0.28 µM | – |
| CC(C)(c1ccc(-c2ccc(OCc3ccnc(N4CC(S(=N)(=O)C5CC5)C4)n3)cn2)cc1)c1cc(Cl)c(OCCCl)c(C#N)c1 (stereo not drawn) [Compound 336] | – | – | – | – | – | 0.68 µM | – |
| CC(C)(c1ccc(-c2ccc(OCC3CC4(C3)CN(c3ccnc(P(C)(C)=O)n3)C4)cc2)cc1)c1cc(Cl)c(OCCCl)c(C#N)c1 [Compound 393] | – | – | – | – | – | 0.88 µM | – |

From patent EP4778922A1, “BICYCLIC COMPOUND, AND PREPARATION METHOD THEREFOR AND PHARMACEUTICAL USE THEREOF” (Shanghai Jeyou Pharmaceutical Co., Ltd., priority 2023, dated 2025)
